The subject of this assay is Male beagle dogs. The assay can be described thus: canine telemetry protocol for blood pressure reduction efficacy. The assay is classed as in vivo. The note with it: 3 mg/kg dose, oral gavage, telemetered male beagle dogs; for ΔPP (mm Hg) 1-6 h / ΔPP (mm Hg) 6-12 h / ΔPP (mm Hg) 12-18 h: change from baseline in pulse pressure; for ΔSBP (mm Hg) 1-6 h / ΔSBP (mm Hg) 6-12 h / ΔSBP (mm Hg) 12-18 h: change from baseline in systolic blood pressure. Here is the method:
Compounds of the invention were evaluated for blood pressure reduction efficacy using the following canine telemetry protocol described below.
Male beagle dogs (approximately 1-3 years old) with a body weight of between 10 and 16 kg were surgically implanted with DSI radiotelemetry devices (model: TL11M2-D70-PCT). Briefly, under an inhalant anesthesia, isoflurane/oxygen mixture (1-3.5%/to effect), the body of the telemetry device was positioned and secured intra-abdominally. Subsequently, the arterial catheter of the telemetry device was passed subcutaneously to the inguinal area and introduced into the femoral artery and advanced to the level of the descending aorta. The catheter was secured with 2-0 silk ligatures. The muscle and underlying fascia was closed over the catheter using absorbable suture and the skin was closed using non-absorbable suture. The animals were allowed a minimum recovery period of 2 weeks between surgery and the evaluation of test compounds.
Compound evaluation consisted of a 3 day paradigm at a 3 mg/kg dose. On the first day, no compounds were administered during a 24 hour period of baseline data collection. Blood pressure and heart rate data were collected continuously for one minute periods at 10 minute intervals. On the days of compound administration half the animals received test article with the other half receiving the vehicle used for compound formulation. All test materials were administered by oral gavage in a volume of 1 mL/kg. Data are expressed either as raw values (mm Hg or beats per minute) or as the change from baseline (average value for about 12 hours in low activity period prior to dosing). Change is SBP (systolic blood pressure) and PP (pulse pressure) over time is shown below: […]

As to `CCN(/[N+]([O-])=N/O[C@@H]1CC[C@H](C(=O)O)C1)C(C)(C)C` [Example 18, (1S,3R)-3-({[(1Z)-2-tert-butyl-2-ethyl-1-oxido-1λ^5-diazan-1-ylidene]amino}oxy)cyclopentanecarboxylic acid], the “ΔPP (mm Hg) 1-6 h” value is listed as −14 mm Hg, the “ΔPP (mm Hg) 6-12 h” value is −10 mm Hg, the “ΔPP (mm Hg) 12-18 h” value was −6 mm Hg and the “ΔSBP (mm Hg) 1-6 h” value is given as −18 mm Hg. For the same compound, the “ΔSBP (mm Hg) 6-12 h” value is −10 mm Hg and the “ΔSBP (mm Hg) 12-18 h” value was −4 mm Hg.
On to `CCCN(/[N+]([O-])=N/O[C@@H]1CC[C@@H](C(=O)O)C1)C(C)(C)C` [Example 7, (1R,3R)-3-({[(1Z)-2-tert-butyl-2-propyl-1-oxido-1λ^5-diazan-1-ylidene]amino}oxy)cyclopentanecarboxylic acid], for which the “ΔPP (mm Hg) 1-6 h” value is recorded as −4 mm Hg, the “ΔPP (mm Hg) 6-12 h” value is given as −9 mm Hg, the “ΔPP (mm Hg) 12-18 h” value is recorded as −8 mm Hg and the “ΔSBP (mm Hg) 1-6 h” value is listed as −9 mm Hg. Further, the “ΔSBP (mm Hg) 6-12 h” value is −11 mm Hg and the “ΔSBP (mm Hg) 12-18 h” value is −10 mm Hg.
As for `CCN(/[N+]([O-])=N/O[C@@H]1CC[C@@H](C(=O)O)C1)C(C)(C)C` [Example 1, (1R,3R)-3-({[(1Z)-2-tert-butyl-2-ethyl-1-oxido-1λ^5-diazan-1-ylidene]amino}oxy)cyclopentanecarboxylic acid], the “ΔPP (mm Hg) 1-6 h” value is −7 mm Hg, the “ΔPP (mm Hg) 6-12 h” value is −7 mm Hg, the “ΔPP (mm Hg) 12-18 h” value was −5 mm Hg and the “ΔSBP (mm Hg) 1-6 h” value is on record as −12 mm Hg. The “ΔSBP (mm Hg) 6-12 h” value is on record as −9 mm Hg and the “ΔSBP (mm Hg) 12-18 h” value was −7 mm Hg.
